Measurements from patent US11285167B2, “Synergistic nutritional neuroprotective compositions for ameliorating neural dysfunction” (CELAGENEX RESEARCH (INDIA) PVT. LTD., priority 2019, dated 2022).

Columns and labels:
[1] = tested on: Valproic acid-induced autism disorder in albino Wistar rats; experiment: Morris water maze test in Valproic acid-induced autism disorder; assay type: in vivo; set-up: Escape latency / Retention time: unit not given here; details: for Escape latency / Retention time: PND 40, VPA 400 mg/kg, oral daily PND 14 to PND 40, mean ± SEM; for Learning and memory activities, Morris water maze (in words): PND 40, compared to Disease control or to Group-3 and Group-4
Method: The present study was to evaluate the effect of test substances on Valproic acid induced Autism spectrum disorder in wistar rats. The animals (50 animals) were divided into five groups each group consisting of 10 animals (5 animals per sex). Animals in Group-1 were treated with vehicle (0.5% CMC), Group-2 was treated with Valproic acid (VPA) 400 mg/kg via subcutaneous route, Group-3, Group-4 and Group-5 were treated with test substance Agmatine Sulphate (25.83 mg/kg), Nicotinamide Riboside chloride (6.46 mg/kg) and Agmatine Sulphate+Nicotinamide Riboside chloride (25.83 mg/kg+6.46 mg/kg) respectively, according to the body weight of animals. At the end of the experimental period, blood was collected from each group for biochemical analyses. On postnatal day 40 (PND 40), all the animals were exposed to the Morris water maze test and Open field test for specific time periods to determine the autism-like behaviors of the test substances. […] The experiment was performed in 14-day old male and female off springs. The weight of the rat pups on the first day of the experiment was 20-40 grams. Sodium Valproate at dose of 400 mg/kg was freshly prepared and administered via subcutaneous route to the rat pups on postnatal day 14 (PND 14). All the animals were divided into five groups and each group contained the same amount of male and female offspring (5 males and 5 females, per group). Animals in Group-1 served as Normal control and were treated with 0.5% CMC, Group-2 served as Disease control and were treated with VPA (400 mg/kg) via intraperitoneally (i.p.), whereas Group-3 was treated with Test-1 Agmatine Sulphate (25.83 mg/kg), Group-4 was treated with Test-2 Nicotinamide Riboside chloride (6.46 mg/kg) and Group-5 was treated with Test-1+Test-2 Agmatine Sulphate+Nicotinamide Riboside chloride (25.83 mg/kg+6.46 mg/kg). The assigned test substances were administered once daily from PND 14 to PND 40. In addition, behaviors of experimental animals were determined via Morris water maze and open field test. […] The dose volume administered to each rat was 10 ml/kg/day. Similarly, 0.5% CMC for Normal control and Disease control groups was administered orally at the same dose volume for a minimum of 26 consecutive days. The dose volume was calculated for individual animals on the first day of the treatment and was re-calculated according to the recent body weights recorded during the study. Daily individual dose volumes were recorded in the study records. The animals were exposed to a pool consisting of 4 quadrants (Northeast, Southeast, Southwest, and Northwest) which was filled with tap water (25° C., 40 cm deep) and covered with nontoxic milk. The removable platform was immersed below the water surface of one quadrant. Each animal had to memorize the location of the immersed platform by using specific visual cues placed around the outside of the tank. The time spent by each rat in finding and climbing on the immersed platform was recorded as the escape latency. Twenty-four hours later, the animal was re-exposed to the same condition, except that the immersed platform had been removed. The mean time that each rat spent in the target quadrant in order to search for the missing platform was noted as the retention time and was used as the index of retrieval memory. Both the escape latency and the retention time in a 5-minute exposure time were used as indices of learning and memory. A blind observer always stood at the same position, and care was taken not to disturb the relative location of water maze with respect to other objects in the laboratory. The determination of the spatial memory capacity via this test was done on PND 40.

[2] = tested on: Major depression disorder in Wistar rats; experiment: Open field test (ambulatory behavior) in Reserpine-induced major depression disorder; assay type: in vivo
[3] = tested on: Valproic acid-induced autism disorder in albino Wistar rats; experiment: Open field test (hyperactivity) in Valproic acid-induced autism disorder; assay type: in vivo; details: for No. of squares visited for 6 mins: PND 40, VPA 400 mg/kg, oral daily PND 14 to PND 40, mean ± SEM; for Hyperactive behavior / locomotor activity, open field test (in words): PND 40, compared to Disease control or to Group-3 and Group-4
Method: The present study was to evaluate the effect of test substances on Valproic acid induced Autism spectrum disorder in wistar rats. The animals (50 animals) were divided into five groups each group consisting of 10 animals (5 animals per sex). Animals in Group-1 were treated with vehicle (0.5% CMC), Group-2 was treated with Valproic acid (VPA) 400 mg/kg via subcutaneous route, Group-3, Group-4 and Group-5 were treated with test substance Agmatine Sulphate (25.83 mg/kg), Nicotinamide Riboside chloride (6.46 mg/kg) and Agmatine Sulphate+Nicotinamide Riboside chloride (25.83 mg/kg+6.46 mg/kg) respectively, according to the body weight of animals. At the end of the experimental period, blood was collected from each group for biochemical analyses. On postnatal day 40 (PND 40), all the animals were exposed to the Morris water maze test and Open field test for specific time periods to determine the autism-like behaviors of the test substances. […] The experiment was performed in 14-day old male and female off springs. The weight of the rat pups on the first day of the experiment was 20-40 grams. Sodium Valproate at dose of 400 mg/kg was freshly prepared and administered via subcutaneous route to the rat pups on postnatal day 14 (PND 14). All the animals were divided into five groups and each group contained the same amount of male and female offspring (5 males and 5 females, per group). Animals in Group-1 served as Normal control and were treated with 0.5% CMC, Group-2 served as Disease control and were treated with VPA (400 mg/kg) via intraperitoneally (i.p.), whereas Group-3 was treated with Test-1 Agmatine Sulphate (25.83 mg/kg), Group-4 was treated with Test-2 Nicotinamide Riboside chloride (6.46 mg/kg) and Group-5 was treated with Test-1+Test-2 Agmatine Sulphate+Nicotinamide Riboside chloride (25.83 mg/kg+6.46 mg/kg). The assigned test substances were administered once daily from PND 14 to PND 40. In addition, behaviors of experimental animals were determined via Morris water maze and open field test. […] The dose volume administered to each rat was 10 ml/kg/day. Similarly, 0.5% CMC for Normal control and Disease control groups was administered orally at the same dose volume for a minimum of 26 consecutive days. The dose volume was calculated for individual animals on the first day of the treatment and was re-calculated according to the recent body weights recorded during the study. Daily individual dose volumes were recorded in the study records. All the animals were exposed to open field tests after the oral treatment with various tests, standard and control treatment in respective groups. The open field apparatus consisted of a wooden field of half square meter with a series of squares alternatively painted in black and white. […] Animals were treated with vehicle and the drug and were placed in the middle of the open field. Then the number of squares visited by the animals was counted for a 6 minute session. The number of entries by respective groups was recorded and used to determine the active time duration of animal post dosing. The determination of the hyperactivity of animals via this test was done on PND 40.

Interleukin - 6 = experiment: Interleukin-6 level in global ischemia reperfusion induced brain injury (cerebral infarction) model; assay type: in vivo, Wistar rats; details: global ischemia (30 min)/72 h reperfusion, oral daily for 10 days, mean ± SEM, n = 6
[4] = tested on: Major depression disorder in Wistar rats; experiment: Overall behavioral evaluation in major depression disorder study (forced swim and open field tests); assay type: in vivo; details: oral 7 consecutive days

SMILES	Escape latency ([1]; Female)	Retention time ([1]; Female)	Escape latency ([1]; Male)	Retention time ([1]; Male)	Learning and memory activities, Morris water maze (in words) [1]	No. of open arm entries (Open field test) ([2]; po)	No. of squares visited for 6 mins ([3]; Female)	No. of squares visited for 6 mins ([3]; Male)	Hyperactive behavior / locomotor activity, open field test (in words) [3]	Interleukin - 6 Levels (Interleukin - 6) [pg/mL]	Effect on major depression disorder (in words) [4]	No. of open arm entries (Open field test) ([2]; 6 minute session, Reserpine induced, oral daily 7 days, mean ± SEM, n = 6)
N=C(N)NCCCCN.O=S(=O)(O)O [Agmatine sulphate]	14.20 ± 0.37	24.80 ± 0.58	14.00 ± 0.71	24.20 ± 0.73	significantly increased learning and memory activities	36.00 ± 0.86	85.40 ± 1.03	86.20 ± 2.06	significantly decreased hyperactive behavior	91.39 ± 0.92	positive effects on major depression disorder	
NC(=O)c1ccc[n+]([C@@H]2O[C@H](CO)[C@@H](O)[C@H]2O)c1.[Cl-] [Nicotinamide Riboside chloride, nicotinamide riboside chloride]	15.20 ± 0.37	26.40 ± 0.68	15.40 ± 0.51	26.20 ± 0.49	significantly increased learning and memory activities		87.20 ± 0.97	88.40 ± 0.98	significantly decreased hyperactive behavior	109.56 ± 0.27	positive effects on major depression disorder	31.33 ± 0.71
